Laboratory results from patent US10501454B2, “Monocyclic β-lactam-siderophore conjugate, and preparation method and use thereof” (Shanghai Institute of Materia Medica, Chinese Academy of …, priority 2016, dated 2019).
Structures can show the parent of a compound that is named as a salt.

Experiments:
[1] = system: multidrug-resistant Klebsiella pneumoniae KR15-4 (KPC2); assay: In vivo efficacy in mice systemically infected with multidrug-resistant Klebsiella pneumoniae KR15-4 (KPC2); details: Klebsiella pneumoniae; Kunming mice, intraperitoneal infection, drug s.c. 0.5 h and 4 h after infection, deaths over 7 days, Bliss method; read-out: ED50 Subcutaneous injection
Method: 4.1 Test strains: clinically isolated pathogenic multidrug-resistant Klebsiella pneumoniae KR15-4 (KPC2), provided by Sichuan Primed Shines Bio-tech Co., Ltd.
4.2 Test animals: Kunming mice, age: 4 to 5 weeks, weight: 18 to 22 g, half male, half female, SPF grade.
4.3 Test methods: Mice were randomly divided into several groups, 5 mice for each group, half male and half female, and 4 doses for each test drug: 12.5, 25, 50 and 100 mg/kg. The mice were intraperitoneally injected with 0.5 mL of 3.0×10^6 CFU/mL bacterial suspension for each mouse, and subcutaneously injected with the drug at the designed dose 0.5 h and 4 h after infection. The subcutaneous injection volume was 0.2 ml/20 g mouse weight; the number of deaths in mice was observed and recorded for 7 consecutive days. According to the number of deaths in mice, the half effective dose ED50 was calculated according to the Bliss method using the DAS 1.0 software, edited by Sun Ruiyuan et al.

[2] = Pharmacokinetic test in rats, intravenous; format: in vivo; details: SD rats, intravenous 1.0 mg/kg, plasma
Method: 2.1.2 Test animals: 6 SD rats, male, weight: 200-220 g.
2.1.3 Drug Preparation: an appropriate amount of the sample was weighed and prepared into a 0.2 mg/mL solution with water for injection.
2.1.4 Administration of the drug: 6 SD rats, male, weight: 200-220 g, were randomly divided into two groups, 3 rats in each group. […] The intravenous dose was 1.0 mg/kg, and the intravenous volume was 5 mL/kg.
Intravenous administration: 2 min, 5 min, 15 min, 30 min, 45 min, 1 h, 1.5 h and 3 h after administration. At the above set time points, 0.3 ml of venous blood was taken from the posterior venous plexus of the rat eye, placed in a heparinized tube, centrifuged at 11,000 rpm for 5 min, then the plasma was separated and stored in a refrigerator at −20° C. All of the rats were fed 2 hours after administration.
After administration, the pharmacokinetic parameters were calculated using a non-compartmental model of WinNonlin 5.3 software (Pharsight, USA).

[3] = system: Klebsiella pneumoniae (4 strains); assay: MIC, broth microdilution, normal MH medium; format: cell-based
Method: Supplier of the strains: all of the above strains were provided by Sichuan Primed Shines Bio-tech Co., Ltd. A single colony was isolated by streaking on agar plates for each strain prior to the experiment, and the cells freshly cultured at 37° C. overnight were appropriately diluted for the experiment.
Medium: MH liquid medium (OXOID).
Culture condition: cells were incubated at 35-37° C. for 16-18 h.
The broth microdilution method recommended by Clinical and Laboratory Standards Institute (CLSI), Performance Standards for Antimicrobial Susceptibility Testing; Twenty-Third Informational Supplement, M02-All, M07-A9 and M11-A8, 2013 was used to determine the MIC value of each test sample against each test strain in the normal MH medium and iron-deficient MH medium.
After diluting each sample to different concentrations with normal MH medium, 100 μl of each test sample solution at different concentrations was separately aspirated onto a 96-well sterile polystyrene plate. Drug solutions were added to the 1st to 10th well with the final concentrations of 16, 8, 4, 2, 1, 0.5, 0.25, 0.125, 0.06, and 0.03 mg/L in each well, respectively. The 11th well, as a blank control, was not added with drugs and bacteria. The 12th well, as a bacterial growth control, was added with bacteria but no drug.
The OD600 value was measured by a microplate reader, Minimal Inhibitory Concentration (MIC) of a drug is the lowest concentration of the drug which prevents growth of bacteria in the wells. 1.2.2 MIC in iron-deficient MH medium

SMILES: CC(C)C(O/N=C(\C(=O)N[C@@H]1C(=O)N(OS(=O)(=O)O)C1(C)C)c1csc(N)n1)c1cc(=O)c(O)cn1O (stereo partly drawn) [Compound 12, (3S)-3-((Z)-2-(2-aminothiazol-4-yl)-2-((1-(1,5-dihydroxy-4-oxo-1,4-dihydropyridin-2-yl)methylisopropyloxy)imine)acetamido)-2,2-dimethyl-4-oxoazetidine-1-hydrogen sulfate]
- ED50 [1]: 10.2 mg/kg
- Clearance CL [2]: 0.66 ± 0.33 L/h/kg
- Half-life T1/2 [2]: 27 ± 6.6 min
- Vd ([2]; male, rat, in vivo, read-out: Apparent Distribution Volume Vss): 0.3 ± 0.03 L/kg
- AUC(0-t) ([2]; male, rat, in vivo, read-out: Area Under the Curve AUC0-4): 1730 ± 697 ng·h/mL
- MRT ([2]; male, rat, read-out: Residence Time MRT): 30.6 ± 10.8 min
- MIC ([3]; Klebsiella pneumoniae, multi-drug resistant clinical isolates (KPC2), read-out: Antibacterial activity MIC, Klebsiella pneumoniae (4 strains)): 0.5 to 1 µg/mL
- times more effective than BAL30072 in inhibitory activity against Klebsiella pneumoniae ([3]; from MIC of Table 2): 64-128 times
